Legend:
[1] = Pharmacokinetic property (Cmax) was measured in rat at the dose of 0.32 mg/kg p.o.; format: ADME, organism-based; design: dose 0.32 mg/kg, route oral; conditions: in vivo, po
[2] = Pharmacokinetic property (t1/2beta) was measured in rat at the dose of 0.32 mg/kg i.v.; format: ADME, organism-based; design: dose 0.32 mg/kg, route intravenous; conditions: in vivo, iv, read-out: T1/2 beta (converted)
[3] = Pharmacokinetic property (t1/2beta) was measured in dog at the dose of 0.032 mg/kg i.v.; format: ADME, organism-based, Canis lupus familiaris; design: dose 0.032 mg/kg, route intravenous; conditions: in vivo, iv, read-out: T1/2 beta (converted)
[4] = Pharmacokinetic property (F) was measured in rat at the dose of 0.32 mg/kg; format: ADME, organism-based; design: dose 0.32 mg/kg; conditions: in vivo
[5] = Pharmacokinetic property (Cmax) was measured in dog at the dose of 0.032 mg/kg; format: ADME, organism-based, Canis lupus familiaris; design: dose 0.032 mg/kg; conditions: in vivo
[6] = Pharmacokinetic property (AUC) was measured in dog at the dose of 0.032 mg/kg p.o.; format: ADME, organism-based, Canis lupus familiaris; design: dose 0.032 mg/kg, route oral; conditions: in vivo, po
[7] = Pharmacokinetic property (F) was measured in dog at the dose of 0.032 mg/kg; format: ADME, organism-based, Canis lupus familiaris; design: dose 0.032 mg/kg; conditions: in vivo
Rattus norvegicus = species: Rattus norvegicus; assay: In vitro inhibition of ADP-induced platelet aggregation using rat platelet rich plasma; format: functional
[8] = Pharmacokinetic property (CLtot) was measured in dog at the dose of 0.032 mg/kg i.v.; format: ADME, organism-based, Canis lupus familiaris; design: dose 0.032 mg/kg, route intravenous; conditions: in vivo, iv, read-out: CLtotal
[9] = Pharmacokinetic property (Tmax) was measured in rat at the dose of 0.32 mg/kg p.o.; format: ADME, organism-based; design: dose 0.32 mg/kg, route oral; conditions: in vivo, po
Canis familiaris = species: Canis familiaris; assay: In vitro inhibition of ADP-induced platelet aggregation using dog platelet rich plasma; format: functional; conditions: Canis lupus familiaris
[10] = Pharmacokinetic property (Tmax) was measured in dog at the dose of 0.032 mg/kg p.o.; format: ADME, organism-based, Canis lupus familiaris; design: dose 0.032 mg/kg, route oral; conditions: in vivo, po
Prostacyclin receptor = Prostacyclin receptor (Homo sapiens, UniProt P43119); assay: In vitro Prostacyclin (PGI-2) receptor binding assay was determined based on displacement of [3H]iloprost radioligand from cloned human IP receptor
Prostacyclin receptor, sequence (P43119 whole entry): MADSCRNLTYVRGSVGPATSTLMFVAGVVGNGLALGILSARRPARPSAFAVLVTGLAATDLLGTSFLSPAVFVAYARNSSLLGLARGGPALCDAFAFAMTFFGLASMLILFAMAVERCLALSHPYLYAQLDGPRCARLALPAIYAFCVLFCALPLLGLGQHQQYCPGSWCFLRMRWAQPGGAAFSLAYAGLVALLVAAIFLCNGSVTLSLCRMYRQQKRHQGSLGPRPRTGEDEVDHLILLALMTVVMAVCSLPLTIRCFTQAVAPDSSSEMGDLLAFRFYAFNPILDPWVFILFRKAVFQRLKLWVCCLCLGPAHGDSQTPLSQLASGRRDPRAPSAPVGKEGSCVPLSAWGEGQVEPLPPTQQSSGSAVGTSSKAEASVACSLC

[11] = Pharmacokinetic property (CLtot)of the compound was measured in rat at the dose of 0.32 mg/kg i.v.; format: ADME, organism-based; design: dose 0.32 mg/kg, route intravenous; conditions: in vivo, iv, read-out: CLtotal
[12] = Pharmacokinetic property (AUC) was measured in rat at the dose of 0.32 mg/kg p.o.; format: ADME, organism-based; design: dose 0.32 mg/kg, route oral; conditions: in vivo, po
Homo sapiens = species: Homo sapiens; assay: In vitro inhibition of ADP-induced platelet aggregation using human platelet rich plasma; format: functional

`O=C([O-])COc1cccc(C[C@@H]2CCCC=C2c2nc(-c3ccccc3)c(-c3ccccc3)o2)c1.[Na+]` gave a Cmax [1] of 16.4 ng/mL, a half-life [2] of 6.6 h and a half-life [3] of 26 h. The bioavailability [4] was 50%, the Cmax [5] was 38.7 ng/mL and the AUC [6] was 392 ng·h/mL. The bioavailability [7] was 72%, the IC50 (Rattus norvegicus) was 1200 nM and the clearance [8] was 1.09 mL/min/kg. The Tmax [9] was 0.3 h, the IC50 (Canis familiaris) was 1300 nM and the Tmax [10] was 2.3 h. It also gave a Ki (Prostacyclin receptor) of 54 nM, a clearance [11] of 17.7 mL/min/kg and an AUC [12] of 147 ng·h/mL. For the same molecule, the IC50 (Homo sapiens) was 60 nM.

Work on `O=C(O)COc1cccc(CC2=C(c3nc(-c4ccccc4)c(-c4ccccc4)o3)CCCC2)c1` yielded an IC50 (Homo sapiens) of 530 nM.

`O=C(O)COc1cccc(C[C@H]2CCCC=C2c2nc(-c3ccccc3)c(-c3ccccc3)o2)c1` showed an IC50 (Homo sapiens) of 110 nM.

Molecule `CC#CCC(C)[C@H](O)/C=C/[C@@H]1[C@H]2C/C(=C/CCCC(=O)O)C[C@H]2C[C@H]1O` (some centres undefined) [ILOPROST] has an IC50 (Homo sapiens) of 2.5 nM.
